The values below come from US7691842B2, “Tricyclic 6-alkylidene-penems as β-lactamase inhibitors” (Wyeth LLC, priority 2002, dated 2010).

The target in data set [1] is class A β-lactamase Imi-1 (Enterobacter cloacae, UniProt Q46991). The data set can be described thus: β-Lactamase inhibition, IC50 determination (nitrocefin, spectrophotometric). Format: biochemical.
Data set [2] has as its target class B enzyme CcrA (Bacteroides fragilis, UniProt P25910). Described as above. It is filed as biochemical. Conditions: enzyme 1.2 nM; 10 min preincubation at 25° C.; nitrocefin 50 μg/ml; 50 mM PO4, pH 7.0; read-out: IC50 (nM) Class B Ccr. The procedure, abridged: (§1)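 Purified enzymes TEM-1 (4.3 nM), Imi-1 (7.1 nM), CcrA (1.2 nM) and AmpC (2.1 nM) were preincubated with inhibitor 10 min at 25 °C in 50 mM PO4, pH 7.0. Nitrocefin (50 μg/ml) hydrolysis rates at 495 nm over 5 min gave % inhibition versus control; IC50 determined graphically.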

Data set [3] concerns the target class C enzyme AmpC (Enterobacter cloacae, UniProt P05364). The data set can be described thus: biochemical. On the set-up: species or system Enterobacter cloaca. The procedure, abridged:
as §1

Data set [4] has as its target class A β-lactamase TEM-1 (Escherichia coli, UniProt P62593). The data set can be described thus: β-Lactamase inhibition, IC50 determination (nitrocefin, spectrophotometric). Format: biochemical, E. Coli. The procedure, abridged: as §1
In data set [5] the test system is class-A producing pathogens. As to conditions: background statement; cited from earlier work.
The test system of data set [6] is class C producing organisms. As to conditions: background statement; cited from earlier work.

Each structure is given as a SMILES string.

Chain of class B enzyme CcrA (P25910 19-249): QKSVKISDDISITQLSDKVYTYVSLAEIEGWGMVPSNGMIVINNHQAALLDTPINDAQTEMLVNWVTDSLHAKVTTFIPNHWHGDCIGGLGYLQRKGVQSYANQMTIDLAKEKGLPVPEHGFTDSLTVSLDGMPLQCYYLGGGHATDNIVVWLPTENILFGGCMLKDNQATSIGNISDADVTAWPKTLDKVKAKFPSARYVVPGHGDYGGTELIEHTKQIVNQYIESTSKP
Chain of class C enzyme AmpC (P05364 21-381): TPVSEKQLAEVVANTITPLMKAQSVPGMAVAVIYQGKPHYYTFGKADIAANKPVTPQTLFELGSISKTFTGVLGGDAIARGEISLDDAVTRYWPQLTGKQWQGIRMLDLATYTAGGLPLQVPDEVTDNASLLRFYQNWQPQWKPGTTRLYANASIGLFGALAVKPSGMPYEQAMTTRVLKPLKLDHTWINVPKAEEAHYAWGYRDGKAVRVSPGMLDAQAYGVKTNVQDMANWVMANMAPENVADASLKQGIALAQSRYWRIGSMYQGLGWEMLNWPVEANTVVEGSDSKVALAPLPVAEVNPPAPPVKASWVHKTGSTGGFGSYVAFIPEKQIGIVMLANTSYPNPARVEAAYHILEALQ
Chain of class A β-lactamase Imi-1 (Q46991 entry or part of it): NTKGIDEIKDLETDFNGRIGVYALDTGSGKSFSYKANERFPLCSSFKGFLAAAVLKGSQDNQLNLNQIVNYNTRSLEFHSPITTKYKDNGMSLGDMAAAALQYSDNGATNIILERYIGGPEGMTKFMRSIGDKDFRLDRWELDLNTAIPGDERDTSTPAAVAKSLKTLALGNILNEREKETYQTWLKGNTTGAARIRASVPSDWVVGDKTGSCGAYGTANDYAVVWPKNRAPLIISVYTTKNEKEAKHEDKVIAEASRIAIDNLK
Chain of class A β-lactamase TEM-1 (P62593 24-286 limits assumed): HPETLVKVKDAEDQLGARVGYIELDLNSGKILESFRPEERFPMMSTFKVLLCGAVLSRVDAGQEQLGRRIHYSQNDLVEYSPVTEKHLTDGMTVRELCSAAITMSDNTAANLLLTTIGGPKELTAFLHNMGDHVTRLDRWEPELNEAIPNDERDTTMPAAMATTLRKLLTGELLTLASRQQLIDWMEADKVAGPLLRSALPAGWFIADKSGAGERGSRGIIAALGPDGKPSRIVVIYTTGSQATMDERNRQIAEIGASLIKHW

For `O=C([O-])C1=CS[C@@H]2/C(=C\c3ccc4nc5n(c4c3)CCCS5)C(=O)N12.[Na+]` [Example 29, (5R,6Z)-6-(3,4-dihydro-2H-[1,3]thiazino[3,2-a]benzimidazol-7-ylmethylene)-7-oxo-4-thia-1-azabicyclo[3.2.0]hept-2-ene-2-carboxylic acid, sodium salt], the melting point (in general, the temperature of the solid-liquid transition) is greater than 250 °C. Moreover, inhibition in data set [1] was half-maximal at 300 nM (IC50). In addition, the IC50 – broadly, the midpoint of a concentration-inhibition curve – in data set [2] was 240 nM. In data set [3], this compound gave an IC50 of 18 nM. The compound further yielded an IC50 in data set [4] of 15 nM.
The matching figures for `O=C([O-])C1=CS[C@@H]2/C(=C\c3ccc4nc5sccn5c4c3)C(=O)N12.[Na+]` [Example 30, (5R,6Z)-7-oxo-6-([1,3]thiazolo[3,2-a]benzimidazol-6-ylmethylene)-4-thia-1-azabicyclo[3.2.0]hept-2-ene-2-carboxylic acid, sodium salt]: greater than 250 °C, 200 nM, 97 nM, 9.3 nM and 46 nM.
As for `O=C(O)[C@H]1/C(=C/CO)O[C@@H]2CC(=O)N21` [clavulanic acid], the “effectiveness against class-A producing pathogens” value in data set [5] is on record as “effective”. Moreover, in data set [6], the “effectiveness against class C producing organisms” value is “ineffective”.
As for `CC1(C)[C@H](C(=O)O)N2C(=O)C[C@H]2S1(=O)=O` [sulbactam], the “effectiveness against class-A producing pathogens” value in data set [5] is “effective”. The “effectiveness against class C producing organisms” value in data set [6] is given as “ineffective”.
With `C[C@]1(Cn2ccnn2)[C@H](C(=O)O)N2C(=O)C[C@H]2S1(=O)=O` [tazobactam], the “effectiveness against class-A producing pathogens” value in data set [5] is reported as “effective”. Further, in data set [6], the “effectiveness against class C producing organisms” value is “ineffective”.
